Results taken from ChEMBL document CHEMBL3243978, “2-(Substituted phenyl)oxazolo[4,5-b]pyridines and 2-(substituted phenyl)oxazolo[5,4-b]pyridines as nonacidic antiinflammatory agents” (J Med Chem, 1978).
In brackets after ≈: the same amount, converted by molar mass.

Key:
[1] = Acute toxicity in po dosed mouse; conditions: in vivo
[2] = species: Mus musculus
[3] = system: Rattus norvegicus; assay: Antiinflammatory activity in rat assessed as inhibition of carrageenan-induced foot edema; assay type: functional
[4] = target: T1, Prostaglandin E synthase (Homo sapiens) (UniProt O14684)
T1 sequence (whole entry): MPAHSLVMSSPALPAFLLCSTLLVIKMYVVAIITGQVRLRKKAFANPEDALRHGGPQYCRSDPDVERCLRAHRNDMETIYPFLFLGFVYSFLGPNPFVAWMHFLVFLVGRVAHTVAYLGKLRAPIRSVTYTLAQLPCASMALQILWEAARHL
Description: Inhibition of prostaglandin synthetase (unknown origin)

[5] = species: Rattus norvegicus; assay: Antiarthritic activity in rat assessed as reduction in adjuvant-induced arthritic pain; assay type: functional
[6] = species: Rattus norvegicus; assay: animal or person; assay type: functional
Description: Antiinflammatory activity in rat assessed as inhibition of carrageenan-induced foot edema at 30 mg/kg

[7] = system: Rattus norvegicus; assay: Toxicity in rat assessed as indomethacin-induced intestinal perforation at 256 mg/kg after 3 days; assay type: organism-based; set-up: dose 256 mg/kg; conditions: in vivo, 72 h
[8] = system: Rattus norvegicus; assay: Toxicity in rat assessed as indomethacin-induced intestinal perforation at 400 mg/kg after 3 days; assay type: organism-based; set-up: dose 400 mg/kg; conditions: in vivo, 72 h
[9] = system: Rattus norvegicus; assay: Toxicity in rat assessed as indomethacin-induced intestinal perforation at 1024 mg/kg after 3 days; assay type: organism-based; set-up: dose 1024 mg/kg; conditions: in vivo, 72 h

Compound | inhibition in vivo at 30 mg/kg [6] | further results
Fc1cccc(F)c1-c1nc2ncccc2o1 | 66% | LD50 [1]: 709 mg/kg; ED50 [2]: 2.4 mg; ED50 [3]: 22 mg/kg; ED50 [4]: 15 µg/mL (≈ 64.6 µM); ED50 [5]: 7.4 mg/kg
CSc1ccccc1-c1nc2ncccc2o1 | 21% | 
FC(F)(F)c1cccc(-c2nc3cccnc3o2)c1 | 7% | 
Cc1ccc(-c2nc3cccnc3o2)cc1 | 0% | 
Cc1cccc(-c2nc3cccnc3o2)c1 | 14% | 
FC(F)(F)c1ccccc1-c1nc2ncccc2o1 | 19% | 
Fc1ccccc1-c1nc2ncccc2o1 | 64% | LD50 [1]: 556 mg/kg; Activity [7]: Non-toxic; ED50 [2]: 6 mg; ED50 [3]: 21 mg/kg; ED50 [4]: 3 µg/mL (≈ 14 µM); ED50 [5]: 23 mg/kg
N#Cc1ccccc1-c1nc2cccnc2o1 | 61% | LD50 [1]: 1500 mg/kg; Activity [7]: Non-toxic; ED50 [2]: 3 mg; ED50 [3]: 11 mg/kg; ED50 [4]: 16 µg/mL (≈ 72.3 µM); ED50 [5]: 44 mg/kg
Clc1cccc(-c2nc3ncccc3o2)c1 | 32% | 
COc1ccc(C#N)c(-c2nc3ncccc3o2)c1 | 3% | 
Clc1cccc(Cl)c1-c1nc2ncccc2o1 | 14% | 
CC(C)Cc1ccc(C(C)C(=O)O)cc1 (stereo unspecified) [IBUPROFEN] |  | LD50 [1]: 1370 mg/kg; ED50 [2]: 5 mg; ED50 [3]: 15 mg/kg; ED50 [4]: 0.4 µg/mL (≈ 1.94 µM); ED50 [5]: 27 mg/kg
Fc1ccc(-c2nc3cccnc3o2)cc1 | 27% | 
N#Cc1cccc(F)c1-c1nc2ncccc2o1 | 50% | 
COc1ccccc1-c1nc2ncccc2o1 | 9% | 
Fc1cccc(-c2nc3cccnc3o2)c1 | 35% | 
COc1ccc(-c2nc3ncccc3o2)cc1 | 14% | 
COc1ccc(Br)c(-c2nc3ncccc3o2)c1 | 8% | 
c1ccc(-c2nc3cccnc3o2)cc1 | 55% | 
Clc1ccc(-c2nc3cccnc3o2)cc1 | 14% | 
O=[N+]([O-])c1cccc(-c2nc3ncccc3o2)c1 | 21% | 
N#Cc1ccc(-c2nc3cccnc3o2)cc1 | 17% | 
COc1ccc2c(c1)c(CC(=O)O)c(C)n2C(=O)c1ccc(Cl)cc1 [INDOMETHACIN] |  | LD50 [1]: 50 mg/kg; ED50 [2]: 2.7 mg; ED50 [3]: 2.7 mg/kg; ED50 [4]: 0.1 µg/mL (≈ 0.279 µM); ED50 [5]: 0.27 mg/kg
O=[N+]([O-])c1ccc(-c2nc3cccnc3o2)cc1 | 5% | 
Clc1ccccc1-c1nc2ncccc2o1 | 38% | 
COc1cccc(-c2nc3ncccc3o2)c1 | 14% | 

Compound | inhibition in vivo at 30 mg/kg [6] | further results
Fc1ccc(-c2nc3ncccc3o2)cc1 | 28% | 
COc1cccc(-c2nc3cccnc3o2)c1 | 0% | 
Brc1ccccc1-c1nc2ncccc2o1 | 24% | 
Clc1ccc(-c2nc3ncccc3o2)cc1 | 24% | 
FC(F)(F)Oc1ccc(-c2nc3ncccc3o2)cc1 | 0% | 
Nc1ccccc1-c1nc2cccnc2o1 | 13% | 
Clc1ccccc1-c1nc2cccnc2o1 | 50% | 
Clc1cccc(-c2nc3cccnc3o2)c1 | 8% | 
N#Cc1cccc(C#N)c1-c1nc2ncccc2o1 | 19% | 
Fc1ccc(F)c(-c2nc3ncccc3o2)c1 | 18% | 
N#Cc1ccccc1-c1nc2ncccc2o1 | 62% | LD50 [1]: 1220 mg/kg; ED50 [2]: 2 mg; ED50 [3]: 17 mg/kg; ED50 [4]: 14 µg/mL (≈ 63.3 µM); ED50 [5]: 20 mg/kg
COc1ccc(-c2nc3cccnc3o2)cc1 | 29% | 
Cc1ccccc1-c1nc2cccnc2o1 | 3% | 
Fc1cc(Cl)ccc1-c1nc2ncccc2o1 | 19% | 
O=[N+]([O-])c1ccccc1-c1nc2cccnc2o1 | 57% | 
CCCCC1C(=O)N(c2ccccc2)N(c2ccccc2)C1=O [PHENYLBUTAZONE] |  | LD50 [1]: 555 mg/kg; Activity [8]: Non-toxic; ED50 [2]: 4.3 mg; ED50 [3]: 28 mg/kg; ED50 [4]: 3 µg/mL (≈ 9.73 µM); ED50 [5]: 14 mg/kg
c1ccc(-c2nc3ncccc3o2)cc1 | 41% | 
Brc1ccccc1-c1nc2cccnc2o1 | 31% | 
CC(=O)Oc1ccccc1C(=O)O [ASPIRIN] |  | LD50 [1]: 1220 mg/kg; ED50 [2]: 7 mg; ED50 [3]: 89 mg/kg; ED50 [4]: 13.4 µg/mL (≈ 74.4 µM); ED50 [5]: 67 mg/kg; Activity [9]: Non-toxic
Cc1ccc(-c2nc3ncccc3o2)cc1 | 5% | 
Fc1ccc(-c2nc3ncccc3o2)c(F)c1 | 23% | 
Cc1ccccc1-c1nc2ncccc2o1 | 0% | 
Fc1cccc(F)c1-c1nc2cccnc2o1 | 50% | 
Brc1cccc(-c2nc3ncccc3o2)c1 | 23% | 
N#Cc1cccc(-c2nc3ncccc3o2)c1 | 21% | 
